In PubChem BioAssay (NCI):
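Interpolation was linear, between the two tested concentrations surrounding the appropriate level; five concentrations were tested over 48 hours in 96-well plates. GI50 = concentration required for 50% inhibition of growth. The concentration for full growth arrest is given as TGI.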

What was measured:
Experiment in all cases: NCI-60 cell line screen, 48 h
OVCAR-3 ovarian = tested on: OVCAR-3 ovarian
NCI-H23 lung = tested on: NCI-H23 lung
UACC-62 melanoma = tested on: UACC-62 melanoma
SNB-75 CNS = tested on: SNB-75 CNS
SN12C renal = tested on: SN12C renal
NCI-H522 lung = tested on: NCI-H522 lung
MOLT-4 leukemia = tested on: MOLT-4 leukemia
HOP-62 NSCLC = tested on: HOP-62 NSCLC
MCF7 breast = tested on: MCF7 breast
RXF 393 renal = tested on: RXF 393 renal
KM12 colon = tested on: KM12 colon
K-562 leukemia = tested on: K-562 leukemia
LOX IMVI melanoma = tested on: LOX IMVI melanoma
HT29 colon = tested on: HT29 colon
EKVX NSCLC = tested on: EKVX NSCLC
NCI-H460 lung = tested on: NCI-H460 lung
SK-MEL-28 melanoma = tested on: SK-MEL-28 melanoma
UO-31 renal = tested on: UO-31 renal
MDA-MB-231 breast = tested on: MDA-MB-231 breast
HOP-92 NSCLC = tested on: HOP-92 NSCLC
PC-3 prostate = tested on: PC-3 prostate
SF-295 CNS = tested on: SF-295 CNS
SF-268 CNS = tested on: SF-268 CNS
HCT-15 colon = tested on: HCT-15 colon
OVCAR-4 ovarian = tested on: OVCAR-4 ovarian
DU-145 prostate = tested on: DU-145 prostate
RPMI-8226 leukemia = tested on: RPMI-8226 leukemia
SK-OV-3 ovarian = tested on: SK-OV-3 ovarian

## Clc1ccc(-c2ccc(OCCCN3CCN(c4ccncc4)CC3)cc2)cc1
OVCAR-3 ovarian
  GI50: 13 µM
  TGI: 30.2 µM
NCI-H23 lung
  GI50: 13.9 µM
  TGI: 29.1 µM
UACC-62 melanoma
  GI50: 16.7 µM
  TGI: 30.5 µM
SNB-75 CNS
  GI50: 14.9 µM
  TGI: 32.5 µM
SN12C renal
  GI50: 13 µM
  TGI: 26.3 µM
NCI-H522 lung
  GI50: 16.6 µM
  TGI: 31.9 µM
MOLT-4 leukemia
  GI50: 6.71 µM
  TGI: > 100 µM
HOP-62 NSCLC
  GI50: 14.7 µM
  TGI: 29 µM
MCF7 breast
  GI50: 6.19 µM
  TGI: 21.2 µM
RXF 393 renal
  GI50: 6.74 µM
  TGI: 20.6 µM
KM12 colon
  GI50: 14.5 µM
  TGI: 29.7 µM
K-562 leukemia
  GI50: 2.64 µM
  TGI: > 100 µM
LOX IMVI melanoma
  GI50: 1.86 µM
  TGI: 3.63 µM
HT29 colon
  GI50: 3.77 µM
  TGI: 14.8 µM
EKVX NSCLC
  GI50: 12 µM
  TGI: 27.9 µM
NCI-H460 lung
  GI50: 7.47 µM
  TGI: 21.4 µM
SK-MEL-28 melanoma
  GI50: 15.3 µM
  TGI: 29.2 µM
UO-31 renal
  GI50: 14.7 µM
  TGI: 29.6 µM
MDA-MB-231 breast
  GI50: 11.8 µM
  TGI: 24.7 µM
HOP-92 NSCLC
  GI50: 3.46 µM
  TGI: 20.3 µM
PC-3 prostate
  GI50: 8.43 µM
  TGI: 51.3 µM
SF-295 CNS
  GI50: 13.9 µM
  TGI: 28.1 µM
SF-268 CNS
  GI50: 16.9 µM
  TGI: 36.5 µM
HCT-15 colon
  GI50: 1.88 µM
  TGI: 3.82 µM
OVCAR-4 ovarian
  GI50: 15.6 µM
  TGI: 41.7 µM
DU-145 prostate
  GI50: 17.9 µM
  TGI: 55.4 µM
RPMI-8226 leukemia
  GI50: 6.95 µM
  TGI: > 100 µM
SK-OV-3 ovarian
  GI50: 15.5 µM
  TGI: 30.4 µM
